The source of these data is US6147097A, “Imidazole derivatives as anti-HIV agents” (Shionogi & Co., Ltd., priority 1994, dated 2000).

Values after ≈ are worked out from the molar mass of the structure shown. Like-named read-outs stand apart in the source and are kept apart here.

One data set relates to MT-4 cells. As to the kind of experiment: cytotoxicity in MT-4 cells (MTT, culture medium in place of HIV). The format is cell-based. The settings on record: human, mt-4 cells, 120 h. Summed up: (§1)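 MT-4 cells (3.5×10^4 per well) exposed to diluted compound with culture medium added instead of HIV, 5 days at 37° C in CO2. MTT added for 1 h, formazan dissolved in Triton X-100/acidified isopropanol. OD read at 560 nm (690 nm reference) and compared with control.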

In another data set the test system is HIV (HTLV-IIIB strain). As to the kind of experiment: microbe, parasite or virus in culture. It counts as cell-based. The following applies: Human immunodeficiency virus 1, IIIB, MT4, 120 h; MT-4 cells, 60 pfu HIV per well, 37° C., 5 days, MTT; Tables 1 and 2; read-out: EC50. Summed up:
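MT-4 cells (3.5×10^4 per well) were infected with HIV at 60 pfu per well in the presence of diluted compound and incubated for 5 days at 37° C. Surviving cells were then measured by MTT reduction, with the formazan dissolved in acidified isopropanol containing Triton X-100.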

A short description of data set [1]: cytotoxicity in MT-4 cells (MTT, culture medium in place of HIV). It counts as cell-based. The following applies: human. Summed up:
as §1

For data set [2], the target named is T1, purified recombinant HIV-1 reverse transcriptase (Human immunodeficiency virus type 1 group M subtype B, UniProt P04585).
T1 construct: purified recombinant HIV-1 reverse transcriptase; made in house; host or cells: Escherichia coli
As to the kind of experiment: reverse transcriptase inhibition, poly(rA)/(dT) template primer, [3H]dTTP uptake. It counts as biochemical. Summed up: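 Inhibition reported as percent reduction of [3H]dTTP incorporation relative to solvent control, after 1 h at 37 °C at pH 8.3. Recombinant RT from E. coli, poly(rA) template with oligo(dT) primer, 4 μM unlabeled dTTP as substrate; product collected on DEAE filter mats.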

The mark [3] stands for this setting: MT-4 cells, no virus, 37° C., 5 days, MTT, Table 3, read-out: CC50.

On to `CC(O)Cn1c(CO)nc(C(C)C)c1Sc1cc(Cl)cc(Cl)c1` (stereo not shown) [Compound 141a, 5-(3,5-dichlorophenylthio)-2-hydroxymethyl-1-(2-hydroxypropyl)-4-isopropyl-1H-imidazole], for which the “EC50 (head of Table 4; CC50 per Test Example 2)” value in the data set on MT-4 cells fell in the range of 12.5 to 25 mg/L.
Consider `CC(C)c1nc(CCCOC(N)=O)n(C)c1Sc1cc(Cl)cc(Cl)c1` [Compound I-148, 2-(3-carbamoyloxypropyl)-5-(3,5-dichlorophenylthio)-4-isopropyl-1-methyl-1H-imidazole], for which the EC50 with HIV (HTLV-IIIB strain) was 0.005 to 0.01 mg/L (≈ 0.0124 to 0.0249 µM). This compound showed a CC50 at 120 h in data set [1] (mt-4 cells) of 6.3 to 12.5 mg/L (≈ 15.7 to 31.1 µM). Moreover, the IC50 in data set [2] is 0.895 µM.
On to `CCn1c(CCCOC(N)=O)nc(C(C)C)c1Sc1cc(Cl)cc(Cl)c1` [Compound I-149, 2-(3-carbamoyloxypropyl)-5-(3,5-dichlorophenylthio)-1-ethyl-4-isopropyl-1H-imidazole], for which the EC50 in the data set with HIV (HTLV-IIIB strain) was determined as 0.01 mg/L (≈ 0.024 µM). Also, the CC50 at 120 h in data set [1] (mt-4 cells) was 6.3 mg/L (≈ 15.1 µM). Besides, the IC50 in data set [2] was 0.769 µM.
In the case of `CC(C)c1nc(CCCOC(N)=O)n(Cc2ccncc2)c1Sc1cc(Cl)cc(Cl)c1` [Compound I-150, 2-(3-carbamoyloxypropyl)-5-(3,5-dichlorophenylthio)-4-isopropyl-1-(pyridin-4-yl)methyl-1H-imidazole], in the data set with HIV (HTLV-IIIB strain), the EC50 stood at 0.008 mg/L (≈ 0.0167 µM). The CC50 at 120 h in data set [1] (mt-4 cells) lay in the range of 6.3 to 12.5 mg/L (≈ 13.1 to 26.1 µM). Also, the IC50 in data set [2] was 1.88 µM.
For the compound `CC(C)c1nc(CCCOC(N)=O)n(CCOC(N)=O)c1Sc1cc(Cl)cc(Cl)c1` [Compound I-151, 1-(2-carbamoyloxyethyl)-2-(3-carbamoyloxypropyl)-5-(3,5-dichlorophenylthio)-4-isopropyl-1H-imidazole], in the data set on HIV (HTLV-IIIB strain), the EC50 was 0.0006 mg/L (≈ 0.00126 µM). For the same compound, the CC50 at 120 h in data set [1] (mt-4 cells) lay within 50 to 100 mg/L (≈ 105 to 210 µM). Besides, the IC50 in data set [2] is 6.1 µM.
`CC(Cn1c(COC(N)=O)nc(C(C)C)c1Sc1cc(Cl)cc(Cl)c1)OC(N)=O` (stereo not shown) [Compound I-152, 2-carbamoyloxymethyl-1-(2-carbamoyloxypropyl)-5-(3,5-dichlorophenylthio)-4-isopropyl-1H-imidazole]: the EC50 with HIV (HTLV-IIIB strain) was under 0.008 mg/L. In data set [1] (mt-4 cells), this compound came in with a CC50 at 120 h of 12.5 to 25 mg/L (≈ 27.1 to 54.2 µM). Also, in data set [2], the IC50 was 3.25 µM.
On the same counts, the results for `CC(C)c1nc(CO)n(CC(C)(C)O)c1Sc1cc(Cl)cc(Cl)c1` [Compound I-153, 5-(3,5-dichlorophenylthio)-2-hydroxymethyl-1-(2-hydroxy-2-methylpropyl)-4-isopropyl-1H-imidazole] are 0.016 mg/L (≈ 0.0411 µM), 12.5 mg/L (≈ 32.1 µM) and 25.7 µM.
As for `CC(O)Cn1c(CO)nc(C(C)C)c1Sc1cc(Cl)cc(Cl)c1` (stereo not shown) [I-32', [1-(2-hydroxypropyl)-5-(3,5-dichlorophenylthio)-4-isopropyl-1H-imidazol-2-yl]methanol], the EC50 in the data set with HIV (HTLV-IIIB strain) lay within 0.002 to 0.004 mg/L (≈ 0.00533 to 0.0107 µM). The CC50 at 120 h in data set [1] (setting [3]) fell in the range of 12.5 to 25 mg/L (≈ 33.3 to 66.6 µM). The IC50 in data set [2] is 1.52 µM.
The like results for `CC(C)c1nc(CN)n(Cc2ccncc2)c1Sc1cc(Cl)cc(Cl)c1` [I-95', 2-aminomethyl-5-(3,5-dichlorophenylthio)-4-isopropyl-1-(pyridin-4-yl)methyl-1H-imidazole] were, in that order, 0.005 mg/L (≈ 0.0123 µM), 6.3 to 12.5 mg/L (≈ 15.5 to 30.7 µM) and 1.18 µM.

In general, EC50 refers to the midpoint of the concentration-response curve. As a reminder, the CC50 is the concentration that lowers cell viability or growth by half. As a reminder, the IC50 is the concentration needed to halve the response being measured.
